According to patent US4268505A, “Pharmaceutical composition comprising a nitrogen-containing polysaccharide and an antibiotic agent, and a method of treating an infectious disease therewith” (priority 1979, dated 1981):

How the values were obtained:
[1] = test system: aminobenzylpenicillin-resistant strain of Enterobacter aerogenes; assay: Therapeutical treatment of mice infected with aminobenzylpenicillin-resistant Enterobacter aerogenes (Example 13); format: in vivo, male ICR-JCL mice; conditions: only aminobenzylpenicillin 100 mg/kg oral, 7th day
Protocol: After keeping the mice for 6 days under usual conditions, their rate of survival was determined on 7th day.

Proteus mirabilis = assay: Minimum growth inhibiting concentration, agar plate method; format: cell-based
Protocol: (§1) The drug-resistant strains of bacterial species were obtained in the manner described below according to the concentration gradient plate culture (see "Chemotherapeutics and Resistant Bacteria", 1970, By Chikara Watanabe, Asakura Shoten).
(§2) The agar plates with drug concentration gradient ranging from 10 to 100 μg/ml were prepared, and each strain of the bacterial species to be tested was streaked or smeared. These plates were kept at 37° C. for several days and the colony formed in the high concentration area was isolated and again similarly inoculated to the plates. Such operation was repeated several times to obtain the bacterial strains resistant to the respective drugs.
(§3) The drug sensitivity of the drug-resistant strains and that of the original strains (sensitive strains) were compared by way of the minimum growth inhibiting concentration (hereinafter abbreviated as MIC) according to the Standard Method of the Japanese Chemotherapeutical Association (see "Chemotherapy" Vol. 22, No. 6, 1126 (1974), by MIC Determination Method Reform Committee). More specifically, double diluted systems of each drug were prepared and they were mixed with the heart-infusion agar medium (Nippon Eiyo Kagaku Co., Ltd.) to form the agar plates. Then a loopful of each strain, which had been cultured at 37° C. in Trypto-soy bouillon (Nippon Eiyo Kagaku Co., Ltd.) for 18 hr. was smeared on each the plate, and after culturing for 18 hr. at 37° C., the growth of the strain on each plate was examined.
(§4) The amount of the present substance added is more than 10 μg/ml, preferably more than 100 μg/ml. The pH of the medium was maintained at 7.2±0.1 so that MIC would not be affected by pH of the medium.
(§5) Specimens of the drug-resistant bacterial strain were obtained according to the aforementioned concentration-gradient plate culture by using Staphylococcus aureus, Streptococcus faecalis, Escherichia coli, Salmonella enteritidis, Klebsiella pneumoniae and Pseudomonas aeruginosa.

[2] = test system: aminobenzylpenicillin-resistant strain of Klebsiella pneumoniae; assay: Therapeutical treatment of mice infected with aminobenzylpenicillin-resistant Klebsiella pneumoniae (Example 12); format: in vivo, male ICR-JCL mice; conditions: only aminobenzylpenicillin 100 mg/kg oral, 7th day
Protocol: Similar experiments as in Example 9 were performed using the present substance obtained by the procedures described in Example 1.
An aminobenzylpenicillin-resistant strain of Klebsiella pneumoniae obtained by the procedures described in Example 1 was inoculated intraperitoneally into two groups (one group comprising 10 animals) of male ICR-JCL mice at a rate of 1×10^8 cells/mouse.
After 2 hours of the inoculation, 100 mg/kg of aminobenzyl penicillin was orally administered to each mouse of one group, and 1,000 mg/kg of the present substance simply admixtured with 100 mg/kg of aminobenzyl penicillin were orally administered to each mouse of another group. After keeping the mice under usual conditions, the rate of survival of each group was observed on 7th day with the results: […]

Escherichia coli = assay: Minimum growth inhibiting concentration, agar plate method; format: cell-based; conditions: for Minimum growth inhibiting concentration: strain resistant to the respective drug
Protocol: as §1, §2, §3
as §4, with “MIC has apparently been reduced to half the level or less before addition of the present substance as will be seen in Table 3 of EXAMPLE 1. The amount” for “The amount”
as §5, with “aeruginosa. The MICs of the original bacterial strains and those of the bacterial strains which have developed resistance to the respective antibiotics are summarized in Table 2.” for “aeruginosa.”

[3] = test system: cephaloridine-resistant strain of Proteus mirabilis; assay: Therapeutical treatment of mice infected with cephaloridine-resistant Proteus mirabilis (Example 11); format: in vivo, male ICR-JCL mice; conditions: only cephaloridine 80 mg/kg i.p., 7th day
Protocol: Similar experiments of therapeutical treatment as in Example 9 was performed by using the present substance obtained by the procedures described in Example 1.
A cephaloridine-resistant strain of Proteus mirabilis obtained by the procedures described in Example 1 was inoculated into male ICR-JCL mice comprising 20 animals at a rate of 5×10^8 cells/animal. After 2 hours of the inoculation 80 mg/kg of cephalotidine was administered intraperitoneally into each of 10 mice (of 20 mice), and 50 mg/kg of the present substance and 80 mg/kg of cephaloridine were almost simultaneously administered to each of another 10 mice (of 20 mice) intraperitoneally.
After keeping the animals under usual conditions for 6 days, their rate of survival were observed on 7th day to find: […]

[4] = strain resistant to the respective antibiotic (Table 2)

Row | Structure (SMILES) | rate of survival [1] [%] | Minimum growth inhibiting concentration (MIC) (Proteus mirabilis; original strain) [µg/mL] | Minimum growth inhibiting concentration (MIC) (Proteus mirabilis; [4]) [µg/mL] | Minimum growth inhibiting concentration (Proteus mirabilis; strain resistant to the respective drug, present substance not added (Table 3)) [µg/mL] | rate of survival [2] [%] | Minimum growth inhibiting concentration (MIC) (Escherichia coli; original strain) [µg/mL] | Minimum growth inhibiting concentration (MIC) (Escherichia coli; [4]) [µg/mL] | Minimum growth inhibiting concentration (Escherichia coli; present substance added at 10 μg/ml) [µg/mL] | Minimum growth inhibiting concentration (Escherichia coli; present substance not added (Table 3)) [µg/mL] | rate of survival [3] [%]
1 | CC1(C)S[C@@H]2[C@H](NC(=O)[C@H](N)c3ccccc3)C(=O)N2[C@H]1C(=O)O [AP, Aminobenzylpenicillin] | 70 | 0.8 | 25 | 25 | 40 |  |  |  |  | 
2 | O=C(Cc1cccs1)N[C@@H]1C(=O)N2C(C(=O)[O-])=C(C[n+]3ccccc3)CS[C@H]12 [CE, Cephaloridine] |  |  |  |  |  | 3.1 | 25 | 12.5 | 25 | 60
